In patent US20080249091A1, “Indoles Useful in the Treatment of Inflammation” (priority 2005, published 2008):

Molecular target: T1, mPGES-1 (Homo sapiens, UniProt O14684)
T1 construct: made in house; host or cells: E. coli (membrane fraction)
T1 sequence (O14684 1-152): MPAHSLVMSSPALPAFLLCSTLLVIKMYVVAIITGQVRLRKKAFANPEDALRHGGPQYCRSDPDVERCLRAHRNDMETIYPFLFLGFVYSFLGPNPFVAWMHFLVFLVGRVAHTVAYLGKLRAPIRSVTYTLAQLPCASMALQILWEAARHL
Experiment: mPGES-1 assay: conversion of PGH2 to PGE2, HPLC analysis
Format: biochemical
Conditions: mPGES-1 expressed in E. coli; 25 min preincubation with inhibitor at room temperature; PGH2 substrate 60 seconds; read-out: IC50 values (inhibition of mPGES-1)
Experimental: In the assay mPGES-1 catalyses the reaction where the substrate PGH2 is converted to PGE2. mPGES-1 is expressed in E. coli and the membrane fraction is dissolved in 20 mM NaPi-buffer pH 8.0 and stored at −80° C. In the assay mPGES-1 is dissolved in 0.1M KPi-buffer pH 7.35 with 2.5 mM glutathione. The stop solution consists of H2O/MeCN (7/3), containing FeCl2 (25 mM) and HCl (0.15 M). The assay is performed at room temperature in 96-well plates. Analysis of the amount of PGE2 is performed with reversed phase HPLC (Waters 2795 equipped with a 3.9×150 mm C18 column). The mobile phase consists of H2O/MeCN (7/3), containing TFA (0.056%), and absorbance is measured at 195 nm with a Waters 2487 UV-detector.
The following is added chronologically to each well: • 1. 100 μL mPGES-1 in KPi-buffer with glutathione. Total protein concentration: 0.02 mg/mL. • 2. 1 μL inhibitor in DMSO. Incubation of the plate at room temperature for 25 minutes. • 3. 4 μL of a 0.25 mM PGH2 solution. Incubation of the plate at room temperature for 60 seconds. • 4. 100 μL stop solution. • 180 μL per sample is analyzed with HPLC.

`O=C(c1ccc(Cl)cc1)c1ccc2c(c1)c(Cl)c(C(=O)O)n2-c1ccc(OC2CCCC2)cc1` [Example 40, 3-Chloro-5-(4-chlorobenzoyl)-1-(4-cyclopentyloxyphenyl)indole-2-carboxylic acid] was tested, and the IC50 was 610 nM.
`CC(C)Oc1ccc(-n2c(C(=O)O)cc3cc(Oc4cnc5ccccc5c4)ccc32)cc1` [Example 13, 1-(4-Isopropoxyphenyl)-5-(quinolin-3-yloxy)indole-2-carboxylic acid] showed an IC50 of 3700 nM.
Work on `O=C(O)c1cc2cc(Oc3ccc(C4CCCCC4)cc3)ccc2n1-c1ccc(OC2CC2)cc1` [Example 21, 5-(4-Cyclohexylphenoxy)-1-(4-cyclopropoxyphenyl)indole-2-carboxylic acid] yielded an IC50 of 75 nM.
In the case of `CC(C)Oc1ccc(-n2c(C(=O)O)cc3cc(Oc4cccc(OC(C)C)c4)ccc32)cc1` [Example 1, 5-(3-Isopropoxyphenoxy)-1-(4-isopropoxyphenyl)indole-2-carboxylic acid], the IC50 is reported as 430 nM.
`CC(C)Oc1ccc(-n2c(C(=O)O)cc3cc(Oc4ccc(Cl)cc4)ccc32)cc1` [Example 10, 5-(4-Chlorophenoxy)-1-(4-isopropoxyphenyl)indole-2-carboxylic acid] gave an IC50 of 240 nM.
